Reference: ChEMBL document CHEMBL1201862, “PubChem BioAssay data set” (2004)
Active and inactive are the calls of the source. Cut-off read from the data, not from the text of the source, for most assays here: actives have a measured IC50 and inactives only a lower limit.

Tests used:
Assay type in all cases: functional
Protein RecA = molecular target: T1, Protein RecA (Mycobacterium tuberculosis, UniProt P9WHJ3); assay: Fluorescence Cell-Free Homogeneous Dose Retest to Identify Inhibitors of RecA-Intein Splicing Activity. [Related pubchem assays (depositor defined):AID2097, AID2223, AID489010, AID492950]
T1 sequence (P9WHJ3 whole entry): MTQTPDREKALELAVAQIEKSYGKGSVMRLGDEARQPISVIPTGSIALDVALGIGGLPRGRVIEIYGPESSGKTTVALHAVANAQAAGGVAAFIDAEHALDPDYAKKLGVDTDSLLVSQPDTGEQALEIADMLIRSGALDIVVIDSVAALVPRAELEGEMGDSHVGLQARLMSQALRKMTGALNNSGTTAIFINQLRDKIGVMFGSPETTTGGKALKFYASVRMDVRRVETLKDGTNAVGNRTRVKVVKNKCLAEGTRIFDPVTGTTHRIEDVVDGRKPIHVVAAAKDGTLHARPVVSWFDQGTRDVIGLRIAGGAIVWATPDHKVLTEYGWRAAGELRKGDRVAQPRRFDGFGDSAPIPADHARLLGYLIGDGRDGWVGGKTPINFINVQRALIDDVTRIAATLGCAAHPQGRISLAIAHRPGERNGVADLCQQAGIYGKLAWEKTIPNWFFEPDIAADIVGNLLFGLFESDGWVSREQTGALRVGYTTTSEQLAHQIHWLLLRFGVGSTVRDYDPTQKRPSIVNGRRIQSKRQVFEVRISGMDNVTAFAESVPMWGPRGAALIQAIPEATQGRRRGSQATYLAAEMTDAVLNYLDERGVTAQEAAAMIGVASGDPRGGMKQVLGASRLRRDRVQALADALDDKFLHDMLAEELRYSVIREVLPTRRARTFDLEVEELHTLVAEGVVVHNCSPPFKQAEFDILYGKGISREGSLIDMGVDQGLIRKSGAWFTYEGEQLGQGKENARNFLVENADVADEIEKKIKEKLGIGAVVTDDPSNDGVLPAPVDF

[1] = molecular target: T2, Sentrin-specific protease 8 (Homo sapiens, UniProt Q96LD8); assay: SENP8 protease inhibitors, SAR follow-up, biochemical, luminescence (AID 504501)
T2 sequence (Q96LD8 whole entry): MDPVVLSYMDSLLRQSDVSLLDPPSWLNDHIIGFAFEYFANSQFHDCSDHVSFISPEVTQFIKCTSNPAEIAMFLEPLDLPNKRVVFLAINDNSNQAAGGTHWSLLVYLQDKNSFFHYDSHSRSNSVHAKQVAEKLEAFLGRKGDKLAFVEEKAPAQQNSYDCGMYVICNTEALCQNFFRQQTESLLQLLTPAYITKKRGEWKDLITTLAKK

[2] = molecular target: T3, Apoptotic protease-activating factor 1 (Homo sapiens, UniProt O14727)
T3 sequence (O14727 whole entry): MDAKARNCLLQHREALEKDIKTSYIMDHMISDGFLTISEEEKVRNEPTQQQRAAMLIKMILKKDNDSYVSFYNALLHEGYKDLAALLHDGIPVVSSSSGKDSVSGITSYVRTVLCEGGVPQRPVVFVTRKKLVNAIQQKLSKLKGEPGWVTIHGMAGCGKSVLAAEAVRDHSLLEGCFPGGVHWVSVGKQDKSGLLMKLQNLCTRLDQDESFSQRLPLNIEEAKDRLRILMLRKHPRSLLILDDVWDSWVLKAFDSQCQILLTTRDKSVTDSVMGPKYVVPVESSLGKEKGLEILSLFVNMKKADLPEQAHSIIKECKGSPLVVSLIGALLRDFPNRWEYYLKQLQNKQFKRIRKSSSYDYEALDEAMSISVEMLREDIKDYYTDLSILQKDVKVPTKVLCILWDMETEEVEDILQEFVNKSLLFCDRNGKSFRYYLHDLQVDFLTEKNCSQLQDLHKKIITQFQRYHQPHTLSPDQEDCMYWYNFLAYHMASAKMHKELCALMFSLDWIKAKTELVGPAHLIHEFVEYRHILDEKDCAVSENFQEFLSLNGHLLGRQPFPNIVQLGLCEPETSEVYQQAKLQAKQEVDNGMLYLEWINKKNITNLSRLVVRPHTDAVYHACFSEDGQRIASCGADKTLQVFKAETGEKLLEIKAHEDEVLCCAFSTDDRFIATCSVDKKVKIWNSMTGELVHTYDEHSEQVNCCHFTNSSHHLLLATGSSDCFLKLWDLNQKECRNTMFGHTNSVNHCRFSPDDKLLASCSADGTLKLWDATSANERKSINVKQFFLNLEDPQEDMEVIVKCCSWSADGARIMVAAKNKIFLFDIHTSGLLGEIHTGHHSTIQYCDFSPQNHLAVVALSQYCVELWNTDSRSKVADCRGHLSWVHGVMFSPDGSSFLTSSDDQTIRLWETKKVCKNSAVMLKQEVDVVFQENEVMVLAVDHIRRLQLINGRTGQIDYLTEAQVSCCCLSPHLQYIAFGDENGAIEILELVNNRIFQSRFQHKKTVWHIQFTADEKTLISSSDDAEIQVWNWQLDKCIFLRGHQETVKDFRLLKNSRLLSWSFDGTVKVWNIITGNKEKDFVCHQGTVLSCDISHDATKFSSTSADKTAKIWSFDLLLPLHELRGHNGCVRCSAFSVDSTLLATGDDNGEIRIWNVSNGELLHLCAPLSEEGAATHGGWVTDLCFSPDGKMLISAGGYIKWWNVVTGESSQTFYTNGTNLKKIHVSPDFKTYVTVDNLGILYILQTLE

O=C(NN=c1c(=O)c2ccccc2c1=O)c1ccccc1
active: EC50 (Protein RecA) 4.83 µM | IC50 [1] 19.8 µM | IC50 [2] 1.66 µM
